Source: ChEMBL document CHEMBL4699472, “Novel potent and selective pyrazolylpyrimidine-based SYK inhibitors” (Bioorg Med Chem Lett, 2020)

Experiments:
[1] = target: Voltage-gated inwardly rectifying potassium channel KCNH2 (Homo sapiens, UniProt Q12809); assay: Inhibition of human ERG assessed as tail current by plate-based planar patch clamp assay
[2] = Intrinsic clearance in human liver microsomes; format: ADME, Microsome; details: read-out: CLH
[3] = target: Tyrosine-protein kinase SYK (Homo sapiens, UniProt P43405); assay: Inhibition of SYK (unknown origin)
[4] = Intrinsic clearance in rat hepatocytes measured per million cells; format: ADME, cell-based, Hepatocyte; details: read-out: CLH
[5] = test system: SUD4; assay: Growth inhibition of human SU-DHL-4 cells after 72 hrs; format: functional
[6] = Lipophilicity, logD of compound in buffer:octanol (100:1) at pH 7.4 by shake flask method; format: physicochemical
[7] = Volume of distribution at steady state in Han Wistar rat at 2 umol/kg, po and 1 umol/kg, iv; format: ADME, organism-based; details: in vivo, dose 1 µmol/kg, read-out: Vdss
[8] = Clearance in Han Wistar rat at 2 umol/kg, po and 1 umol/kg, iv; format: ADME, organism-based; details: in vivo, dose 1 µmol/kg
[9] = Oral bioavailability in Han Wistar rat at 2 umol/kg; format: ADME, organism-based; details: in vivo, at 2 µmol/kg
[10] = Protein binding in Han Wistar rat plasma assessed as unbound fraction; format: ADME, cell-free
[11] = Dissociation constant, pKa of the compound; format: physicochemical
[12] = Oral bioavailability in Beagle dog at 2 umol/kg; format: ADME, organism-based, Canis lupus familiaris; details: in vivo, at 2 µmol/kg
[13] = Volume of distribution at steady state in Beagle dog at 2 umol/kg, po and 1 umol/kg, iv; format: ADME, organism-based, Canis lupus familiaris; details: in vivo, dose 2 µmol/kg, read-out: Vdss
[14] = Protein binding in Beagle dog plasma assessed as unbound fraction; format: ADME, cell-free, Canis lupus familiaris
[15] = Clearance in Beagle dog at 2 umol/kg, po and 1 umol/kg, iv; format: ADME, organism-based, Canis lupus familiaris; details: in vivo, dose 2 µmol/kg
[16] = Intrinsic clearance in dog hepatocytes measured per million cells; format: ADME, cell-based, Canis lupus familiaris, Hepatocyte; details: read-out: CLH
[17] = Clearance in Beagle dog at 2 umol/kg, po and 1 umol/kg, iv relative to hepatic blood flow; format: ADME, organism-based, Canis lupus familiaris; details: in vivo, at 2 µmol/kg

Voltage-gated inwardly rectifying potassium channel KCNH2, sequence (Q12809 whole entry): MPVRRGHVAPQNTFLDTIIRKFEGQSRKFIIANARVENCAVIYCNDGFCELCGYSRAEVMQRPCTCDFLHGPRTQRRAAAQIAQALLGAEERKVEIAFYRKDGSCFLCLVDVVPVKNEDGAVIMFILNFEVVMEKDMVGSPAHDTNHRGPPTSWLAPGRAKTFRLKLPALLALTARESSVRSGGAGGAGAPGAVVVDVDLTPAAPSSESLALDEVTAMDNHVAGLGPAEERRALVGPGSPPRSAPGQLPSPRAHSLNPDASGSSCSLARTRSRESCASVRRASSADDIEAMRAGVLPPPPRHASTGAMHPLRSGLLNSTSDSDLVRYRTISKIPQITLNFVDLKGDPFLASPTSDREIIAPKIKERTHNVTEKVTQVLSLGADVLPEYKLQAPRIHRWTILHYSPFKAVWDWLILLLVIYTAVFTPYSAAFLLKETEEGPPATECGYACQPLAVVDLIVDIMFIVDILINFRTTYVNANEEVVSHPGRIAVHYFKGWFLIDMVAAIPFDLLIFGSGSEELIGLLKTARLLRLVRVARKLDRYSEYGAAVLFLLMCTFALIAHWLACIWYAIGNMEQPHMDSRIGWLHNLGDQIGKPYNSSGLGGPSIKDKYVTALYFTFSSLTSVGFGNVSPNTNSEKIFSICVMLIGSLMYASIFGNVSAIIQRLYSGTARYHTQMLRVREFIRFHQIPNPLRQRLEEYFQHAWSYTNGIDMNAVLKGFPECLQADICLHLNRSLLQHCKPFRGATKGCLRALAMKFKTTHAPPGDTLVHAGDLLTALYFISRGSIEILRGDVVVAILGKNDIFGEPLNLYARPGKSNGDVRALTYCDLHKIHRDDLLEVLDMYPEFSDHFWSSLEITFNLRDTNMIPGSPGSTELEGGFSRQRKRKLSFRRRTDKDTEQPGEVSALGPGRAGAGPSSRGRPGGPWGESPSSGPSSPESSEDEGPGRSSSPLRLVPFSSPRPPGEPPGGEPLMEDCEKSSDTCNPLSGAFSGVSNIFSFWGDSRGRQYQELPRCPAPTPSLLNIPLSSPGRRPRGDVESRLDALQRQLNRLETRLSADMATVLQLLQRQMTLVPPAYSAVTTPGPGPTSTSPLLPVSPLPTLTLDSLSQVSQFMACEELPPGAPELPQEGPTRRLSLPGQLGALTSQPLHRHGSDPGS

| Structure (SMILES) | IC50 [1] [nM] | microsomal CLint [2] [µL/min/mg] | IC50 [3] [nM] | hepatocyte CLint [4] [µL/min/1e6 cells] | GI50 [5] [nM] | logD [6] | other results |
| --- | --- | --- | --- | --- | --- | --- | --- |
| CNC(=O)c1nc(C)n2ccc(Nc3nccc(-n4cc(NCCN)cn4)n3)cc12 | > 39000 | < 3 | 0.23 | 2 |  |  |  |
| CNC(=O)c1nn(C)c2ccc(Nc3nccc(-n4cc(CN(C)C)c(C)n4)n3)cc12 |  |  |  |  | 240 |  |  |
| CNC(=O)c1nc(C)n2ccc(Nc3nccc(-n4cc(N[C@@H]5CCOC[C@@H]5N)c(C)n4)n3)cc12 | > 39000 | 32 | 3.2 | 6 | 810 | 1.6 |  |
| CNC(=O)c1nn(C)c2ccc(Nc3nccc(-n4cc(O[C@H]5CNC[C@H]5F)c(C)n4)n3)cc12 |  | 44 | 0.4 | 25 | 1400 | 2.9 |  |
| CNC(=O)c1nn(C)c2ccc(Nc3nccc(-n4cc(OC5CNC5)c(C)n4)n3)cc12 |  | < 3 | 1.3 | 13 |  | 1.9 |  |
| Cc1nn(-c2ccnc3[nH]c(-c4cccc5c4ccn5C)nc23)cc1CN(C)C |  | 37 |  |  |  |  |  |
| CNC(=O)c1nc(C)n2ccc(Nc3nccc(-n4cc(CN(C)C)cn4)n3)cc12 | 7100 | 20 | 0.24 | 13 | 230 | 1.3 |  |
| CNC(=O)c1nn(C)c2ccc(Nc3nccc(-n4cc(N[C@@H]5CCN(C)C5)c(C)n4)n3)cc12 |  |  | 7.9 |  |  | 2 |  |
| Cc1nnc(-c2nn(C)c3ccc(Nc4nccc(-n5cc(N[C@@H]6CCOC[C@@H]6N)c(C)n5)n4)cc23)o1 | 11000 | 129 | 0.2 | 17 | 1300 | 3.1 |  |
| CNC(=O)c1nn(C)c2ccc(Nc3nccc(-n4cc(NCC5(N)CC5)c(C)n4)n3)cc12 |  | 28 | 0.34 | 8 | 2800 | 2.3 | Vd [7]: 1.3 L/kg; clearance [8]: 13 mL/min/kg; bioavailability [9]: 29%; fraction unbound [10]: 0.056 |
| CNC(=O)c1nc(C)n2ccc(Nc3nccc(-n4cc(N[C@@H]5CCOC[C@@H]5N)cn4)n3)cc12 | > 39000 | 20 |  | 14 | 260 | 1.7 |  |
| CNC(=O)c1nn(C)c2ccc(Nc3nccc(-n4cc(O[C@@H]5CCNC5)c(C)n4)n3)cc12 | 5200 | < 5 | 0.51 | 13 | 510 | 1.4 |  |
| CNC(=O)c1nn(C)c2ccc(Nc3nccc(-n4cc(N[C@@H]5CCCNC5)c(C)n4)n3)cc12 | > 39000 | < 5 | 0.73 | 3 | 300 | 0.6 | Vd [7]: 19 L/kg; clearance [8]: 78 mL/min/kg; bioavailability [9]: 0%; fraction unbound [10]: 0.33 |
| Cc1nn(-c2ccnc(Nc3ccc4c(c3)c(C(=O)C(F)(F)F)cn4C)n2)cc1N[C@@H]1CCOC[C@@H]1N | 4700 | 71 | 0.22 | 8 |  | 2.4 |  |
| CNC(=O)c1nn(C)c2ccc(Nc3nccc(-n4cc(O[C@H]5CCNC5)c(C)n4)n3)cc12 |  |  | 2.9 |  |  |  |  |
| CNC(=O)c1nn(C)c2ccc(Nc3nccc(-n4cc(N[C@H]5CNC[C@@H]5F)c(C)n4)n3)cc12 | 19000 | 28 | 0.3 | 8 | 970 | 1.7 | pKa [11]: 7.8 |
| CNC(=O)c1nn(C)c2ccc(Nc3nccc(-n4cc(N[C@@H]5CCOC[C@@H]5N)c(C)n4)n3)cc12 |  | 32 | 0.34 | 8 | 560 | 1.6 | Vd [7]: 5.4 L/kg; clearance [8]: 76 mL/min/kg; bioavailability [9]: 3.8%; fraction unbound [10]: 0.25 |
| CNC(=O)c1nn(C)c2ccc(Nc3nccc(-n4cc(O[C@@H]5CCCNC5)c(C)n4)n3)cc12 | 2500 | 8 | 0.19 | 9 | 350 | 1.7 |  |
| Cc1nn(-c2ccnc(Nc3ccc4c(c3)c(Cl)nn4C)n2)cc1N[C@@H]1CCOC[C@@H]1N |  |  | 62 |  |  |  |  |
| CNC(=O)c1nn(C)c2ccc(Nc3nccc(-n4cc(NC5CNC5)c(C)n4)n3)cc12 |  | 8 | 1.5 | < 1 |  | 0.7 |  |
| CNC(=O)c1nn(C)c2ccc(Nc3nccc(-n4cc(N[C@@H]5CCOC[C@@H]5N)cn4)n3)cc12 | 15000 | 17 | 0.33 | 4 | 220 | 2.2 | bioavailability [12]: 2%; Vd [13]: 5.7 L/kg; Vd [7]: 9.8 L/kg; clearance [8]: 82 mL/min/kg; fraction unbound [14]: 0.27; clearance [15]: 16 mL/min/kg; bioavailability [9]: 1.8%; hepatocyte CLint [16]: < 1 µL/min/1e6 cells; CL [17]: 40%; fraction unbound [10]: 0.28 |
| CNC(=O)c1nc(C)n2ccc(Nc3nccc(-n4cc(OCCN)cn4)n3)cc12 | > 39000 | 7 | 0.88 | 14 |  | 0.6 |  |
| CNC(=O)c1nn(C)c2ccc(Nc3nccc(-n4cc(N[C@H]5CCNC5)c(C)n4)n3)cc12 |  |  | 11 |  |  |  |  |
| CNC(=O)c1nn(C)c2ccc(Nc3nccc(-n4cc(N[C@@H]5CCNC5)c(C)n4)n3)cc12 | > 39000 | < 10 | 0.6 | 3 | 170 | 0.3 | pKa [11]: 9.5; Vd [7]: 13 L/kg; clearance [8]: 60 mL/min/kg; bioavailability [9]: 0%; fraction unbound [10]: 0.24 |
